System: primary rat HSCs
Test: Microarray expression profiling of TGFβ1 and TGFβ1+1,25(OH)2D3-treated HSCs
Type: cell-based
Source text: VDR Signaling Suppresses TGFβ-induced Pro-Fibrotic Genes. […] Euclidean clustering of both rows and columns using log2 transformed microarray expression data, n=2 per treatment group. […] Data represents the mean±SEM of at least three independent experiments performed in triplicate. Asterisks denote statistically significant differences (Student's unpaired t-test, *p<0.05, **p<0.01). HSCs were isolated from 10-week old male C57BL/6J mice and Wistar rats by in situ pronase, collagenase perfusion and single-step Histogenz gradient as previously reported (Hendriks et al., 1985; Knook et al., 1982). Isolated HSCs were cultured in DMEM (Mediatech) containing 20% FBS (Hyclone) on 6-well plates for 40 hours prior to end-point assays. Total RNA from primary rat or mouse HSCs was isolated using the RNeasy mini kit (Qiagen) according to standard protocols. RNA integrity and quality was assessed using the Agilent Bioanalyzer and prepared for hybridization to Illumina rat or mouse gene expression arrays according to standard Illumina protocols. Feature extraction was performed using the Illumina GenomeStudio software. Normalization and identification of differentially expressed genes from biological duplicates was performed using […] at http://sasquatch.ucsd.edu/vampire/.

SMILES: C=C1/C(=C\C=C2/CCC[C@]3(C)C([C@H](C)CCCC(C)(C)O)CC[C@@H]23)C[C@@H](O)C[C@@H]1O (stereo partly drawn) [1,25(OH)2D3, 1α,25 dihydroxyvitamin D3]
- TGFβ1 induced genes (1,25(OH)2D3 co-treatment with TGFβ1): considerable repression
- Mmp13 VitD + TGF β Avg Signal (TGFβ1 1 ng/ml + 1,25(OH)2D3 100 nM, 24 h, Control 150.8, TGFβ 202.4): 180.0
- Col4a2 VitD + TGF β Avg Signal (TGFβ1 1 ng/ml + 1,25(OH)2D3 100 nM, 24 h, Control 162.6, TGFβ 225.3): 166.2
- Itga7 VitD + TGF β Avg Signal (TGFβ1 1 ng/ml + 1,25(OH)2D3 100 nM, 24 h, Control 170.2, TGFβ 202.7): 161.9
- Col16a1 VitD + TGF β Avg Signal (TGFβ1 1 ng/ml + 1,25(OH)2D3 100 nM, 24 h, Control 175.4, TGFβ 237.2): 173.3
- Col7a1 VitD + TGF β Avg Signal (TGFβ1 1 ng/ml + 1,25(OH)2D3 100 nM, 24 h, Control 185.8, TGFβ 229.6): 190.3
- Itga2 VitD + TGF β Avg Signal (TGFβ1 1 ng/ml + 1,25(OH)2D3 100 nM, 24 h, Control 188.5, TGFβ 257.9): 204.2
- LOC366205 VitD + TGFbeta AVG signal (TGFβ1 1 ng/ml + 1,25(OH)2D3 100 nM, 24 h, Control 193.2, TGFβ 926.6): 140.7
- Tgfb3 VitD + TGF β Avg Signal (TGFβ1 1 ng/ml + 1,25(OH)2D3 100 nM, 24 h, Control 226.4, TGFβ 288.5): 178.6
- LOC499272 VitD + TGFbeta AVG signal (TGFβ1 1 ng/ml + 1,25(OH)2D3 100 nM, 24 h, Control 234.2, TGFβ 620): 140.2
- LOC497796 VitD + TGFbeta AVG signal (TGFβ1 1 ng/ml + 1,25(OH)2D3 100 nM, 24 h, Control 240.8, TGFβ 4341): 859
- Col15a1 VitD + TGF β Avg Signal (TGFβ1 1 ng/ml + 1,25(OH)2D3 100 nM, 24 h, Control 257.9, TGFβ 616.4): 396.9
- Ly49si1 VitD + TGFbeta AVG signal (TGFβ1 1 ng/ml + 1,25(OH)2D3 100 nM, 24 h, Control 261.1, TGFβ 622.8): 134.7
- Tgfbr1 VitD + TGF β Avg Signal (TGFβ1 1 ng/ml + 1,25(OH)2D3 100 nM, 24 h, Control 277.1, TGFβ 365.1): 331.9
- Mmp7 VitD + TGF β Avg Signal (TGFβ1 1 ng/ml + 1,25(OH)2D3 100 nM, 24 h, Control 277.3, TGFβ 469.3): 164.9
- LOC499100 VitD + TGFbeta AVG signal (TGFβ1 1 ng/ml + 1,25(OH)2D3 100 nM, 24 h, Control 281.2, TGFβ 594.6): 154.4
- LOC305269 VitD + TGFbeta AVG signal (TGFβ1 1 ng/ml + 1,25(OH)2D3 100 nM, 24 h, Control 288.8, TGFβ 687.8): 170.6
- Tgfbr2 VitD + TGF β Avg Signal (TGFβ1 1 ng/ml + 1,25(OH)2D3 100 nM, 24 h, Control 289.0, TGFβ 347.6): 358.9
- Stab1_predict VitD + TGFbeta AVG signal (TGFβ1 1 ng/ml + 1,25(OH)2D3 100 nM, 24 h, Control 303.7, TGFβ 1141.2): 204.7
- Mmp19 VitD + TGF β Avg Signal (TGFβ1 1 ng/ml + 1,25(OH)2D3 100 nM, 24 h, Control 319.6, TGFβ 516.3): 308.7
- Cdh1 VitD + TGFbeta AVG signal (TGFβ1 1 ng/ml + 1,25(OH)2D3 100 nM, 24 h, Control 337.9, TGFβ 553.9): 126.8
- Dcir2 VitD + TGFbeta AVG signal (TGFβ1 1 ng/ml + 1,25(OH)2D3 100 nM, 24 h, Control 426.1, TGFβ 842.9): 184.9
- Cysltr1 VitD + TGFbeta AVG signal (TGFβ1 1 ng/ml + 1,25(OH)2D3 100 nM, 24 h, Control 429.3, TGFβ 801.8): 183.5
- LOC501570 VitD + TGFbeta AVG signal (TGFβ1 1 ng/ml + 1,25(OH)2D3 100 nM, 24 h, Control 429.6, TGFβ 887.6): 192.5
- Tmem26_pred VitD + TGFbeta AVG signal (TGFβ1 1 ng/ml + 1,25(OH)2D3 100 nM, 24 h, Control 457.8, TGFβ 912.3): 237.3
- Pirb VitD + TGFbeta AVG signal (TGFβ1 1 ng/ml + 1,25(OH)2D3 100 nM, 24 h, Control 462.9, TGFβ 913.7): 171.1
- LOC366608 VitD + TGFbeta AVG signal (TGFβ1 1 ng/ml + 1,25(OH)2D3 100 nM, 24 h, Control 469.9, TGFβ 892.8): 203.6
- Col1a1 VitD + TGF β Avg Signal (TGFβ1 1 ng/ml + 1,25(OH)2D3 100 nM, 24 h, Control 474.2, TGFβ 1429.1): 557.9
- Loxl2 VitD + TGF β Avg Signal (TGFβ1 1 ng/ml + 1,25(OH)2D3 100 nM, 24 h, Control 495.5, TGFβ 966.5): 597.0
- Timp2 VitD + TGF β Avg Signal (TGFβ1 1 ng/ml + 1,25(OH)2D3 100 nM, 24 h, Control 500.7, TGFβ 913.0): 751.7
- Col3a1 VitD + TGF β Avg Signal (TGFβ1 1 ng/ml + 1,25(OH)2D3 100 nM, 24 h, Control 513.9, TGFβ 965.1): 287.6
- Col6a3 VitD + TGF β Avg Signal (TGFβ1 1 ng/ml + 1,25(OH)2D3 100 nM, 24 h, Control 526.5, TGFβ 848.2): 442.6
- Loxl1 VitD + TGF β Avg Signal (TGFβ1 1 ng/ml + 1,25(OH)2D3 100 nM, 24 h, Control 537.2, TGFβ 1045.1): 560.1
- Ly49si2 VitD + TGFbeta AVG signal (TGFβ1 1 ng/ml + 1,25(OH)2D3 100 nM, 24 h, Control 538.9, TGFβ 1177): 256
- LOC361699 VitD + TGFbeta AVG signal (TGFβ1 1 ng/ml + 1,25(OH)2D3 100 nM, 24 h, Control 557.1, TGFβ 1013.7): 263.7
- Mmp10 VitD + TGF β Avg Signal (TGFβ1 1 ng/ml + 1,25(OH)2D3 100 nM, 24 h, Control 561.7, TGFβ 1042.3): 764.6
- Col8a1 VitD + TGF β Avg Signal (TGFβ1 1 ng/ml + 1,25(OH)2D3 100 nM, 24 h, Control 574.2, TGFβ 1285.9): 773.5
- Ccl12_predicte VitD + TGFbeta AVG signal (TGFβ1 1 ng/ml + 1,25(OH)2D3 100 nM, 24 h, Control 597, TGFβ 1047.9): 191.1
- Col5a1 VitD + TGF β Avg Signal (TGFβ1 1 ng/ml + 1,25(OH)2D3 100 nM, 24 h, Control 611.1, TGFβ 1418.9): 673.0
- LOC304349 VitD + TGFbeta AVG signal (TGFβ1 1 ng/ml + 1,25(OH)2D3 100 nM, 24 h, Control 664, TGFβ 1503.8): 211.1
- Tgfb2 VitD + TGF β Avg Signal (TGFβ1 1 ng/ml + 1,25(OH)2D3 100 nM, 24 h, Control 814.7, TGFβ 1308.4): 388.0
- LOC498751 VitD + TGFbeta AVG signal (TGFβ1 1 ng/ml + 1,25(OH)2D3 100 nM, 24 h, Control 827.8, TGFβ 2611.8): 516.6
- Emr1 VitD + TGFbeta AVG signal (TGFβ1 1 ng/ml + 1,25(OH)2D3 100 nM, 24 h, Control 831.7, TGFβ 1893.5): 319.1
- LOC502904 VitD + TGFbeta AVG signal (TGFβ1 1 ng/ml + 1,25(OH)2D3 100 nM, 24 h, Control 858.7, TGFβ 1425.7): 213.6
- Itga5 VitD + TGF β Avg Signal (TGFβ1 1 ng/ml + 1,25(OH)2D3 100 nM, 24 h, Control 880.0, TGFβ 1227.3): 1158.1
- Cacnb3 VitD + TGFbeta AVG signal (TGFβ1 1 ng/ml + 1,25(OH)2D3 100 nM, 24 h, Control 906.9, TGFβ 2511.6): 415.9
- Bmp2 VitD + TGFbeta AVG signal (TGFβ1 1 ng/ml + 1,25(OH)2D3 100 nM, 24 h, Control 954.6, TGFβ 1628.6, listed as VitD): 305
- Gas7 VitD + TGFbeta AVG signal (TGFβ1 1 ng/ml + 1,25(OH)2D3 100 nM, 24 h, Control 1039.2, TGFβ 4083.5): 832.8
- Slamf9_predic VitD + TGFbeta AVG signal (TGFβ1 1 ng/ml + 1,25(OH)2D3 100 nM, 24 h, Control 1044.7, TGFβ 1762.9): 417.9
- Itga4 VitD + TGF β Avg Signal (TGFβ1 1 ng/ml + 1,25(OH)2D3 100 nM, 24 h, Control 1128.4, TGFβ 1464.4): 380.6
- LOC498741 VitD + TGFbeta AVG signal (TGFβ1 1 ng/ml + 1,25(OH)2D3 100 nM, 24 h, Control 1156.2, TGFβ 1908.8): 314.1
- Hod VitD + TGFbeta AVG signal (TGFβ1 1 ng/ml + 1,25(OH)2D3 100 nM, 24 h, Control 1297, TGFβ 2520.2): 495.9
- LOC502907 VitD + TGFbeta AVG signal (TGFβ1 1 ng/ml + 1,25(OH)2D3 100 nM, 24 h, Control 1399.7, TGFβ 2318.7): 241.9
- Ptprc VitD + TGFbeta AVG signal (TGFβ1 1 ng/ml + 1,25(OH)2D3 100 nM, 24 h, Control 1582.3, TGFβ 2387): 569.1
- Itgam VitD + TGF β Avg Signal (TGFβ1 1 ng/ml + 1,25(OH)2D3 100 nM, 24 h, Control 1689.7, TGFβ 2297.0): 658.0
- Col4a1 VitD + TGF β Avg Signal (TGFβ1 1 ng/ml + 1,25(OH)2D3 100 nM, 24 h, Control 1708.1, TGFβ 2261.0): 1315.2
- Chst1_predict VitD + TGFbeta AVG signal (TGFβ1 1 ng/ml + 1,25(OH)2D3 100 nM, 24 h, Control 1813.1, TGFβ 4284.5): 337.6
- Dsipi VitD + TGFbeta AVG signal (TGFβ1 1 ng/ml + 1,25(OH)2D3 100 nM, 24 h, Control 1943.2, TGFβ 4575.5): 1152
- Ccr5 VitD + TGFbeta AVG signal (TGFβ1 1 ng/ml + 1,25(OH)2D3 100 nM, 24 h, Control 2069.5, TGFβ 4680.9): 362.3
- Itgav VitD + TGF β Avg Signal (TGFβ1 1 ng/ml + 1,25(OH)2D3 100 nM, 24 h, Control 2145.1, TGFβ 4760.5): 2417.2
- Mmp9 VitD + TGF β Avg Signal (TGFβ1 1 ng/ml + 1,25(OH)2D3 100 nM, 24 h, Control 2153.3, TGFβ 4197.3): 2676.4
- Col5a2 VitD + TGF β Avg Signal (TGFβ1 1 ng/ml + 1,25(OH)2D3 100 nM, 24 h, Control 2181.0, TGFβ 3452.2): 1696.8
- Lox VitD + TGF β Avg Signal (TGFβ1 1 ng/ml + 1,25(OH)2D3 100 nM, 24 h, Control 2260.8, TGFβ 7481.1): 4219.9
- LOC499356 VitD + TGFbeta AVG signal (TGFβ1 1 ng/ml + 1,25(OH)2D3 100 nM, 24 h, Control 2562.8, TGFβ 3888.4): 352.7
- Fchsd2_predic VitD + TGFbeta AVG signal (TGFβ1 1 ng/ml + 1,25(OH)2D3 100 nM, 24 h, Control 2632.5, TGFβ 7594.5): 1565
- Tgfb1 VitD + TGF β Avg Signal (TGFβ1 1 ng/ml + 1,25(OH)2D3 100 nM, 24 h, Control 2922.5, TGFβ 5480.4): 4391.0
- Ms4a4a_predi VitD + TGFbeta AVG signal (TGFβ1 1 ng/ml + 1,25(OH)2D3 100 nM, 24 h, Control 3327, TGFβ 14356): 810.7
- Pcsk1 VitD + TGFbeta AVG signal (TGFβ1 1 ng/ml + 1,25(OH)2D3 100 nM, 24 h, Control 3330.8, TGFβ 6754.6): 912.4
- Ms4a6a_predi VitD + TGFbeta AVG signal (TGFβ1 1 ng/ml + 1,25(OH)2D3 100 nM, 24 h, Control 3823.9, TGFβ 7658.8): 1696

Source: patent US10238667B2, “Vitamin D receptor/SMAD genomic circuit gates fibrotic response” (Salk Institute for Biological Studies, priority 2013, dated 2019)
